Laboratory results taken from patent US20230242494A1, “MALONITRILE DERIVATIVES” (Hoffmann-La Roche Inc., priority 2020, published 2023).

Biological target: T1, human cGAS (residues 161-522) (Homo sapiens, UniProt Q8N884)
T1 construct: human cGAS (residues 161-522); made in house
Test: cGAS Activity Assay—Malachite Green
Assay type: biochemical
Settings: recombinant purified human cGAS 25 nM; 80 μM ATP, 80 μM GTP, 100 nM ISD; 4 hour at RT; phosphate detection by Malachite Green
Experimental: Compounds were tested for cGAS inhibition in a coupled enzymatic assay based on Phosphate detection by Malachite Green. Final assay conditions were 20 mM TRIS pH 7.5 (Applichem), 5 mM MgCl2 (Sigma) and 0.01% BSA (Sigma) supplemented with 80 μM ATP (Sigma), 80 μM GTP (Sigma) and 100 nM Interferon Stimulating DNA (ISD) (Microsynth). Recombinantly expressed purified human cGAS (residues 161-522) was used at 25 nM.
All compounds were prepared as 10 mM stock solutions in DMSO and a 16 pt dilution series in DMSO with a dilution factor of 2.5 was prepared. 1 μL of DMSO dilution series was transferred to 32.3 μL reaction buffer, mixed by pipetting up/down, spun for 1 minute at 3000 rpm and was visually inspected for precipitation. 5 μL of 3-fold enzyme stock solution were transferred to an empty 384-well Black/Clear Flat Bottom Polystyrene NBS (Corning) rows 3-24. Rows 1-2 were filled with assay buffer. Plates were spun 10 seconds at 1000 rpm (164×g). 5 μL of compound intermediate dilution was added and mixed by pipetting up/down to rows 3-24. Rows 1-2 were filled with 3.1% DMSO assay buffer. Plates were spun 10 seconds at 1000 rpm (164×g). 5 μL 3-fold Nucleotide/DNA mix was added to all wells to start the reaction. Plates were spun 10 seconds at 1000 rpm (164×g) and incubated for 4 hour at room temperature (RT) in the dark. 5 μL 4 U/ml PPase (Sigma) were added to all wells. Plates spun 10 seconds at 1000 rpm (164×g). 10 μL BioMol green Solution (Enzo Life Sciences) was added to all wells. Plates spun 10 seconds at 1000 rpm (164×g) and incubated 30 minutes at RT in the dark. Absorbance data was collected 620 nm on an EnVision Multilable Reader (Perkin Elmer) and the following measurement settings were used: excitation filter photometric was 620 nm; excitation from the top; measurement height was 1 mm; number of flashes was 30; number of flashes integrated was 1.
All plates are checked for abnormalities and outliers in the Blank Control (no protein, row 1) and the Neutral Control (no compound, row 2) are excluded using the 3*SD rule. Data was normalized to 0 and 100% by Blank and Neutral Control and each curve was fitted and judged using the 4 parameter logistic equation to determine the IC50 for cGAS inhibition.
Table 13 provides IC50 values (μM) for cGAS inhibition obtained for particular examples of the present invention as measured by the above-described assay.

T1 sequence (Q8N884 161-522): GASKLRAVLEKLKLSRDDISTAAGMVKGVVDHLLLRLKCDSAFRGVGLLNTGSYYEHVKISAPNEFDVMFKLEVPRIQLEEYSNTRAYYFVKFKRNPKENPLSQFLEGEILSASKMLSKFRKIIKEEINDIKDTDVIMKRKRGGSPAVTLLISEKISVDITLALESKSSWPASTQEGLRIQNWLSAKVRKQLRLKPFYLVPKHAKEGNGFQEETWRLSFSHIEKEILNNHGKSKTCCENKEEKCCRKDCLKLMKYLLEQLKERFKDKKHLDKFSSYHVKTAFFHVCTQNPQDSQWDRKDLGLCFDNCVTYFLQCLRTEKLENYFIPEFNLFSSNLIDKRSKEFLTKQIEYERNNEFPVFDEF

Structure (SMILES) | IC50 [nM]
Cc1oncc1/C(O)=C(\C#N)C(=O)Nc1ccc(S(=O)(=O)Cc2ccccc2Cl)cn1 [Example 109, (Z)—N-(5-((2-chlorobenzyl)sulfonyl)pyridin-2-yl)-2-cyano-3-hydroxy-3-(5-methylisoxazol-4-yl)acrylamide] | 720
COC(=O)Cc1ccc(NC(=O)/C(C#N)=C(\O)c2cnoc2C)cc1 [Example 32, methyl 2-[4-[[(Z)-2-cyano-3-hydroxy-3-(5-methylisoxazol-4-yl)prop-2-enoyl]amino]phenyl] acetate] | 530
COc1cc(NC(=O)/C(C#N)=C(\O)c2cnoc2C)ccc1C(F)(F)F [Example 76, (Z)-2-cyano-3-hydroxy-N-(3-methoxy-4-(trifluoromethyl)phenyl)-3-(5-methylisoxazol-4-yl)acrylamide] | 4460
COc1ccc(CCc2cnc(NC(=O)/C(C#N)=C(\O)c3cnoc3C)nc2C(F)(F)F)cn1 [Example 130, (Z)-2-cyano-3-hydroxy-N-(5-(2-(6-methoxypyridin-3-yl)ethyl)-4-(trifluoromethyl)pyrimidin-2-yl)-3-(5-methylisoxazol-4-yl)acrylamide] | 1220
Cc1oncc1/C(O)=C(\C#N)C(=O)Nc1ccc([S+](C)[O-])cc1 (centres unmarked) [Example 116, (Z)-2-cyano-3-hydroxy-3-(5-methylisoxazol-4-yl)-N-(4-methylsulfinylphenyl) prop-2-enamide] | 380
COc1ccc(NC(=O)/C(C#N)=C(\O)c2cnoc2C)cc1 [Example 17, (Z)-2-cyano-3-hydroxy-N-(4-methoxyphenyl)-3-(5-methylisoxazol-4-yl)acrylamide] | 640
Cc1oncc1/C(O)=C(\C#N)C(=O)Nc1ccc(Oc2ccc(Cl)cc2)c(Cl)c1 [Example 24, (Z)-N-(3-chloro-4-(4-chlorophenoxy)phenyl)-2-cyano-2-hydroxy-3-(5-methylisoxazol-4-yl)acrylamide] | 4370
Cc1oncc1/C(O)=C(\C#N)C(=O)Nc1ncc([S+]([O-])c2ccccc2)cn1 (centres unmarked) [Example 112, (Z)-N-[5-(benzenesulfinyl)pyrimidin-2-yl]-2-cyano-3-hydroxy-3-(5-methylisoxazol-4-yl)prop-2-enamide] | 20
Cc1oncc1/C(O)=C(\C#N)C(=O)Nc1ccc(S(=O)(=O)Nc2ncccn2)cc1 [Example 45, (Z)-2-cyano-3-hydroxy-3-(5-methylisoxazol-4-yl)-N-[4-(pyrimidin-2-ylsulfamoyl)phenyl]prop-2-enamide] | 90
Cc1oncc1/C(O)=C(\C#N)C(=O)Nc1ccc(S(=O)(=O)NC(C)(C)C)cn1 [Example 93, (Z)-N-(5-(N-(tert-butyl)sulfamoyl)pyridin-2-yl)-2-cyano-3-hydroxy-3-(5-methylisoxazol-4-yl)acrylamide] | 140
Cc1oncc1/C(O)=C(\C#N)C(=O)Nc1ncc(C(=O)N(C)c2ccccc2)c(-c2ccccc2)n1 [Example 135, (Z)-2-(2-cyano-3-hydroxy-3-(5-methylisoxazol-4-yl)acrylamido)-N-methyl-N,4-diphenylpyrimidine-5-carboxamide] | 570
Cc1oncc1/C(O)=C(\C#N)C(=O)Nc1ccc(Cc2ccccc2)cc1 [Example 74, (Z)-N-(4-benzylphenyl)-2-cyano-3-hydroxy-3-(5-methylisoxazol-4-yl)acrylamide] | 1500
Cc1oncc1/C(O)=C(\C#N)C(=O)Nc1ccc(C(=O)N[C@H]2CCN(Cc3ccccc3)C2)cc1 [Example 70, (S,Z)-N-(1-benzylpyrrolidin-3-yl)-4-(2-cyano-3-hydroxy-3-(5-methylisoxazol-4-yl)acrylamido)benzamide] | 1000
Cc1oncc1/C(O)=C(\C#N)C(=O)Nc1nc(Cl)c(-c2ccccc2)c(NS(=O)(=O)c2ccc(Cl)cc2)n1 [Example 108, (Z)-N-(4-chloro-6-((4-chlorophenyl)sulfonamido)-5-phenylpyrimidin-2-yl)-2-cyano-3-hydroxy-3-(5-methylisoxazol-4-yl)acrylamide] | 5010
Cc1oncc1C(=O)N(c1ccc(C#N)cc1)S(=O)(=O)c1ccc(NC(=O)/C(C#N)=C(\O)c2cnoc2C)cc1 [Example 58, (Z)-N-((4-(2-cyano-3-hydroxy-3-(5-methylisoxazol-4-yl)acrylamido)phenyl)sulfonyl)-N-(4-cyanophenyl)-5-methylisoxazole-4-carboxamide] | 330
Cc1oncc1/C(O)=C(\C#N)C(=O)Nc1ccc(Oc2cccc(C(F)(F)F)c2)cc1 [Example 18, (Z)-2-cyano-3-hydroxy-3-(5-methylisoxazol-4-yl)-N-(4-(3-(trifluoromethyl)phenoxy)phenyl)acrylamide] | 3710
Cc1oncc1/C(O)=C(\C#N)C(=O)Nc1ncc(OCC2CC2)c(-c2ccc(Cl)cc2)n1 [Example 125, (Z)-N-(4-(4-chlorophenyl)-5-(cyclopropylmethoxy)pyrimidin-2-yl)-2-cyano-3-hydroxy-3-(5-methylisoxazol-4-yl)acrylamide] | 2910
Cc1oncc1/C(O)=C(\C#N)C(=O)Nc1ccc(C(F)(F)F)c(Cl)c1 [Example 65, (Z)-N-(3-chloro-4-(trifluoromethyl)phenyl)-2-cyano-3-hydroxy-3-(5-methylisoxazol-4-yl)acrylamide] | 1670
Cc1oncc1/C(O)=C(\C#N)C(=O)Nc1ccc(-c2ccccc2)cc1 [Example 64, (Z)-2-cyano-3-hydroxy-3-(5-methylisoxazol-4-yl)-N-(4-phenylphenyl)-prop-2-enamide] | 1730
Cc1oncc1/C(O)=C(\C#N)C(=O)Nc1ccc(C(F)(F)F)cn1 [Example 66, (Z)-2-cyano-3-hydroxy-3-(5-methylisoxazol-4-yl)-N-(5-(trifluoromethyl)pyridin-2-yl)acrylamide] | 490
Cc1oncc1/C(O)=C(\C#N)C(=O)Nc1ncc(S(C)(=O)=O)c(-c2ccccc2Cl)n1 [Example 140, (Z)-N-(4-(2-chlorophenyl)-5-(methylsulfonyl)pyrimidin-2-yl)-2-cyano-3-hydroxy-3-(5-methylisoxazol-4-yl)acrylamide] | 240
Cc1oncc1/C(O)=C(\C#N)C(=O)Nc1ccc(C(F)(F)F)cc1Cl [Example 56, (Z)-N-(2-chloro-4-(trifluoromethyl)phenyl)-2-cyano-3-hydroxy-3-(5-methylisoxazol-4-yl)acrylamide] | 740
Cc1oncc1/C(O)=C(\C#N)C(=O)Nc1ccc(S(=O)(=O)c2cccnc2)cc1 [Example 123, (Z)-2-cyano-3-hydroxy-3-(5-methylisoxazol-4-yl)-N-(4-(pyridin-3-ylsulfonyl)phenyl) acrylamide] | 210
Cc1oncc1/C(O)=C(\C#N)C(=O)Nc1ccc(S(=O)(=O)N(C)CCN(C)C)cc1 [Example 120, (Z)-2-cyano-N-(4-(N-(2-(dimethylamino)ethyl)-N-methylsulfamoyl)phenyl)-3-hydroxy-3-(5-methylisoxazol-4-yl)acrylamide] | 670
COc1cnc(NC(=O)/C(C#N)=C(\O)c2cnoc2C)nc1 [Example 46, (Z)-2-cyano-3-hydroxy-N-(5-methoxypyrimidin-2-yl)-3-(5-methylisoxazol-4-yl)prop-2-enamide] | 70
Cc1oncc1/C(O)=C(\C#N)C(=O)Nc1ccc(S(=O)(=O)c2ccc(Cl)cc2)cc1 [Example 16, (Z)-N-(4-((4-chlorophenyl)sulfonyl)phenyl)-2-cyano-3-hydroxy-3-(5-methylisoxazol-4-yl)acrylamide] | 270
